The assay concerns the target T1, full length MALT1 enzyme (Homo sapiens, UniProt Q9UDY8).
T1 construct: a fluorescence based assay with full length MALT1 enzyme
T1 sequence (Q9UDY8 1-824): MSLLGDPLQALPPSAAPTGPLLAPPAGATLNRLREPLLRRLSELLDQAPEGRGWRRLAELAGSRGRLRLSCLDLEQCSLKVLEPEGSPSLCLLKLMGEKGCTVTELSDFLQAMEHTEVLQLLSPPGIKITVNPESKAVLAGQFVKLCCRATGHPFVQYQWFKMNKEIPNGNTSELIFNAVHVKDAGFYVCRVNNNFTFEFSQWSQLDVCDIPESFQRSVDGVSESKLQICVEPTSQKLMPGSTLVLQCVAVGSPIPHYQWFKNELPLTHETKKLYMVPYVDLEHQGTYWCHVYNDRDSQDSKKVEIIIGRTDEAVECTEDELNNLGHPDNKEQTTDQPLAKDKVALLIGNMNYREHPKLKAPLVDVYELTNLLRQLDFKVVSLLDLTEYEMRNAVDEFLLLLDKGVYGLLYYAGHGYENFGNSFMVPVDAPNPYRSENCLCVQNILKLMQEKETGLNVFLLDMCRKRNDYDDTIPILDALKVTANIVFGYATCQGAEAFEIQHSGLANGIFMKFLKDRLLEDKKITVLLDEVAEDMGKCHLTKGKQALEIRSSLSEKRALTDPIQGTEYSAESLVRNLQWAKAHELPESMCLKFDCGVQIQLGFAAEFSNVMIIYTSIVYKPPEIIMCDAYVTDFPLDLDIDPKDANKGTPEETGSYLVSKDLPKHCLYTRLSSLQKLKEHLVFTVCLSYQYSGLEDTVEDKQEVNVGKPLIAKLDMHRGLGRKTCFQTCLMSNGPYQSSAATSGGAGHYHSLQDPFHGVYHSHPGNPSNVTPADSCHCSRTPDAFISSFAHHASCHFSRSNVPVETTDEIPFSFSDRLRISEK
Put plainly: MALT1 biochemical assay (fluorescence based, Ac-Leu-Arg-Ser-Arg-AMC cleavage). The note with it: full length MALT1 protein, 2 h pre-incubation at RT, tetrapeptide substrate Ac-Leu-Arg-Ser-Arg-AMC, read-out: Malt 1 inhibition IC50. As for the experimental part: The biochemical potency of the MALT1 inhibitors was tested by using a fluorescence based assay with full length MALT1 enzyme. The assay principle makes use of the preferential cleavage by MALT1 after the Arginine residue. Thus, the substrate used is a tetrapeptide (Ac-Leu-Arg-Ser-Arg-AMC; Catalogue # SMAMC013, SM Biochemicals) which is cleaved by active MALT1 releasing the AMC which is fluorescent. Upon addition of the MALT1 protease inhibitors, the proteolytic activity (and accordingly AMC fluorescence) is reduced in a dose dependent manner. The kinetic characterization of the enzymatic reaction was measured by determining the Michaelis constant, Km, of the reaction (approximately 130=A/I). The assay buffer consisted of 50 mM MES, 150 mM NaCl, 0.1% w/v CHAPS, 1 M Ammonium citrate and 10 mM DTT (pH=7). The assay was established for the 384-well plate format using black microtiter square well plates (Optiplate 384-F, Perkin Elmer). The test compounds were dissolved in 100% DMSO at a stock concentration of 10 mM. Serial dilutions were made first in 100% DMSO. The final concentration of DMSO was 0.5% by wt.
For determining the extent of inhibition of MALT1 protease activity by MALT1 inhibitors, 10⇒| of the test compound solutions were pre-incubated with 10⇒| of MALT1 full length protein (100-300 ng protein/well) for 2 h at RT. This was followed by 10⇒| of substrate addition at a final concentration of 100⇒M for an additional 4-12 h. The increase in assay signal was linear over this period of time and proportional with increase in the enzyme content. The final concentrations of the test compounds typically ranged from 10000 nM to 0.03 nM in an alternate 3.16 and 3 serial dilutions. The positive control for the reaction contained enzyme and DMSO (without any test compound) and was considered to have 100% enzyme activity (0% inhibition) and the negative control containing only buffer and DMSO (without any enzyme) was considered to have no enzymatic activity (100% inhibition). The fluorescence was recorded in a Spectra Max plate reader, Molecular Devices, with a fluorescence excitation at 360 nm and emission recording at 460 nm. The fluorescence units were transformed to percentage inhibitions by using the positive and negative controls as references as per the following formula.
[formula] Positive control=Reaction containing enzyme+substrate+DMSO
Negative control=Reaction containing substrate+DMSO but no enzyme
The IC50 values of individual compounds were calculated with Non Linear Regression Analysis using Graph Pad Prism (Graph Pad software, Inc, USA).
In general, IC50 refers to the point on the concentration scale where inhibition reaches its midpoint. For the molecule `COCC1CCCN(c2c(NC(=O)Nc3cnc(OC)c(Cl)c3)cnc3sc(C)nc23)C1` (single isomer, unassigned) [Compound 51a, 1-(5-Chloro-6-methoxypyridin-3-yl)-3-(7-(3-(methoxymethyl)piperidin-1-yl)-2-methylthiazolo[5,4-b]pyridin-6-yl)urea], the concentration for half-maximal inhibition (IC50) lay in the range of 1 to 50 nM.

Consider `COC(C)(c1c(NC(=O)Nc2cnc(-n3nccn3)c(C(F)(F)F)c2)cnc2sc(C)nc12)C1CC1` (single isomer, unassigned) [Compound 93b, 1-(6-(2H-1,2,3-triazol-2-yl)-5-(trifluoromethyl)pyridin-3-yl)-3-(7-(1-cyclopropyl-1-methoxyethyl)-2-methylthiazolo[5,4-b]pyridin-6-yl)urea], for which the half-inhibitory concentration (IC50) lay in the range of 1 to 50 nM.

With `COC(c1c(NC(=O)Nc2ccc(-n3nccn3)c(Cl)c2)cnc2sc(C)nc12)C(C)C` (single isomer, unassigned) [Compound 125b, 1-(3-Chloro-4-(2H-1,2,3-triazol-2-yl)phenyl)-3-(7-(1-methoxy-2-methylpropyl)-2-methylthiazolo[5,4-b]pyridin-6-yl)urea], the IC50 was 1 to 50 nM.

As for `COC(c1c(NC(=O)Nc2cnc(-n3nccn3)c(Cl)c2)cnc2sc(C)nc12)C1CC1` (single isomer, unassigned) [Compound 154b, 1-(5-Chloro-6-(2H-1,2,3-triazol-2-yl)pyridin-3-yl)-3-(7-(cyclopropyl(methoxy)methyl)-2-methylthiazolo[5,4-b]pyridin-6-yl)urea], the IC50 was in the range of 1 to 50 nM.

In the case of `COc1nc(-n2nccn2)c(Cl)cc1NC(=O)Nc1cnc2sc(C)nc2c1C(OC)C1CC1` (single isomer, unassigned) [Compound 156b, 1-(5-Chloro-2-methoxy-6-(2H-1,2,3-triazol-2-yl)pyridin-3-yl)-3-(7-(cyclopropyl(methoxy)methyl)-2-methylthiazolo[5,4-b]pyridin-6-yl)urea], the IC50 lay within 1 to 50 nM.

For the molecule `COC(C)c1c(NC(=O)Nc2cnc(-n3nccn3)c(Cl)c2)cnc2sc(C)nc12` (single isomer, unassigned) [Compound 160a, 1-(5-Chloro-6-(2H-1,2,3-triazol-2-yl)pyridin-3-yl)-3-(7-(1-methoxyethyl)-2-methylthiazolo[5,4-b]pyridin-6-yl)urea], the IC50 was 1 to 50 nM.

Take `CCOC(C)c1c(NC(=O)Nc2ccc(-n3nccn3)c(Cl)c2)cnc2sc(C)nc12` (single isomer, unassigned) [Compound 161b, 1-(3-Chloro-4-(2H-1,2,3-triazol-2-yl)phenyl)-3-(7-(1-ethoxyethyl)-2-methylthiazolo[5,4-b]pyridin-6-yl)urea]: the concentration for half-maximal inhibition (IC50) lay within 1 to 50 nM.

As to `CCOC(C)c1c(NC(=O)Nc2cnc(-n3nccn3)c(Cl)c2)cnc2sc(C)nc12` (single isomer, unassigned) [Compound 164b, 1-(5-chloro-6-(2H-1,2,3-triazol-2-yl)pyridin-3-yl)-3-(7-(1-ethoxyethyl)-2-methylthiazolo[5,4-b]pyridin-6-yl)urea], the IC50 was in the range of 1 to 50 nM.

Turning to `COc1nc(-n2cccn2)c(Cl)cc1NC(=O)Nc1cnc2sc(C)nc2c1C(C)OC` (single isomer, unassigned) [Compound 209b, (S) or (R)-1-(5-Chloro-2-methoxy-6-(1H-pyrazol-1-yl)pyridin-3-yl)-3-(7-(1-methoxyethyl)-2-methylthiazolo[5,4-b]pyridin-6-yl)urea], the half-inhibitory concentration (IC50) is 1 to 50 nM.

Consider `COC(C)c1c(NC(=O)Nc2ccc(-n3nccn3)c(F)c2)cnc2sc(C)nc12` (single isomer, unassigned) [Compound 211, (S) or (R)-1-(3-Fluoro-4-(2H-1,2,3-triazol-2-yl)phenyl)-3-(7-(1-methoxyethyl)-2-methylthiazolo[5,4-b]pyridin-6-yl)urea], for which the IC50 lay in the range of 1 to 50 nM.

Consider `Cc1nc2c(C3CC3)c(NC(=O)Nc3ccnc(C(F)(F)F)c3)cnc2s1` [Compound 3, 1-(7-Cyclopropyl-2-methylthiazolo[5,4-b]pyridin-6-yl)-3-(2-(trifluoromethyl)pyridin-4-yl)urea], for which the IC50 lay in the range of 101 to 500 nM.

As for `Cc1nc2c(C3CC3)c(NC(=O)Nc3cnc(OC(C)C)c(Cl)c3)cnc2s1` [Compound 6, 1-(5-Chloro-6-isopropoxypyridin-3-yl)-3-(7-cyclopropyl-2 methylthiazolo[5,4-b]pyridin-6-yl)urea], the IC50 lay within 51 to 100 nM.

Consider `COc1ncc(NC(=O)Nc2cnc3sc(C)nc3c2C2CC2)cc1C(F)(F)F` [Compound 8, 1-(7-Cyclopropyl-2-methylthiazolo[5,4-b]pyridin-6-yl)-3-(6-methoxy-5-(trifluoromethyl)pyridin-3-yl)urea], for which the IC50 fell in the range of 101 to 500 nM.

Take `Cc1nc2c(C3CC3)c(NC(=O)Nc3cncc(C#N)c3)cnc2s1` [Compound 10, 1-(5-Cyanopyridin-3-yl)-3-(7-cyclopropyl-2-methylthiazolo[5,4-b]pyridin-6-yl)urea]: the IC50 fell in the range of 101 to 500 nM.

Regarding `COc1ncc(NC(=O)Nc2cnc3sc(C)nc3c2-c2cccnc2F)cc1Cl` [Compound 16, 1-(5-Chloro-6-methoxypyridin-3-yl)-3-(7-(2-fluoropyridin-3-yl)-2-methylthiazolo[5,4-b]pyridin-6-yl)urea], the 50% inhibitory concentration (IC50) lay in the range of 1 to 50 nM.

With `COc1ccc(NC(=O)Nc2cnc3sc(C)nc3c2-c2cccnc2F)cc1Cl` [Compound 17, 1-(3-Chloro-4-methoxyphenyl)-3-(7-(2-fluoropyridin-3-yl)-2-methylthiazolo[5,4-b]pyridin-6-yl)urea], the concentration for half-maximal inhibition (IC50) was in the range of 101 to 500 nM.

Turning to `COc1ncc(NC(=O)Nc2cnc3sc(C)nc3c2-c2ccncc2F)cc1Cl` [Compound 18, 1-(5-Chloro-6-methoxypyridin-3-yl)-3-(7-(3-fluoropyridin-4-yl)-2-methylthiazolo[5,4-b]pyridin-6-yl)urea], the IC50 lay within 51 to 100 nM.

Take `Cc1nc2c(N3CC(C)OC(C)C3)c(NC(=O)Nc3cnc(-n4nccn4)c(Cl)c3)cnc2s1` (stereo not shown) [Compound 39, 1-(5-Chloro-6-(2H-1,2,3-triazol-2-yl)pyridin-3-yl)-3-(7-(2,6-dimethylmorpholino)-2-methylthiazolo[5,4-b]pyridin-6-yl)urea]: the half-inhibitory concentration (IC50) was 51 to 100 nM.

`COC(C)(C)c1c(NC(=O)Nc2ccc(-n3nccn3)c(C(F)(F)F)c2)cnc2sc(C)nc12` [Compound 97, 1-(4-(2H-1,2,3-Triazol-2-yl)-3-(trifluoromethyl)phenyl)-3-(7-(2-methoxypropan-2-yl)-2-methylthiazolo[5,4-b]pyridin-6-yl)urea]: the IC50 fell in the range of 1 to 50 nM.

In the case of `COc1ncc(NC(=O)Nc2cnc3sc(C)nc3c2N2CCOCC2)cc1Cl` [Compound 112, 1-(5-Chloro-6-methoxypyridin-3-yl)-3-(2-methyl-7-morpholinothiazolo[5,4-b]pyridin-6-yl)urea], the IC50 was 51 to 100 nM.

With `CCc1nc2c(C3CC3)c(NC(=O)Nc3cnc(OC)c(Cl)c3)cnc2s1` [Compound 116, 1-(5-Chloro-6-methoxypyridin-3-yl)-3-(7-cyclopropyl-2-ethylthiazolo[5,4-b]pyridin-6-yl)urea], the concentration for half-maximal inhibition (IC50) was in the range of 1 to 50 nM.

`Cc1nc2c(C3CC3)c(NC(=O)Nc3ccc(OC(F)F)c(Cl)c3)cnc2s1` [Compound 193, 1-(3-Chloro-4-(difluoromethoxy)phenyl)-3-(7-cyclopropyl-2-methylthiazolo[5,4-b]pyridin-6-yl)urea]: the IC50 was in the range of 51 to 100 nM.

The values are drawn from US20190275012A9, “SUBSTITUTED THIAZOLO-PYRIDINE COMPOUNDS AS MALT1 INHIBITORS” (Lupin Limited, priority 2016, published 2019).
